Laboratory results reported in the supplement of paper PMC13380429.

What was measured:
Details in all cases: 72 h
[1] = system: Vero E6; experiment: relative viability EC50 (midpoint between 100% and the lowest measured viability); higher = less toxic
[2] = system: Caco-2; experiment: as above
[3] = system: Calu-3; experiment: as above
[4] = system: U2OS; experiment: as above
[5] = system: HepG2; experiment: as above
[6] = system: Vero E6; experiment: cell viability relative to DMSO; higher = less toxic
[7] = system: Caco-2; experiment: as above
[8] = system: Calu-3; experiment: as above
[9] = system: U2OS; experiment: as above
[10] = system: HepG2; experiment: as above
[11] = system: Vero E6; experiment: drug sensitivity score (DSS) for viability; higher = more toxic; extreme values may be limits of the assay
[12] = system: Caco-2; experiment: as above
[13] = system: Calu-3; experiment: as above
[14] = system: U2OS; experiment: as above
[15] = system: HepG2; experiment: as above

SMILES | relative viability EC50 [1] | relative viability EC50 [2] | relative viability EC50 [3] | relative viability EC50 [4] | relative viability EC50 [5] | cell viability ([6]; 1 nM) | cell viability ([6]; 10 nM) | cell viability ([6]; 100 nM) | cell viability ([6]; 1000 nM) | cell viability ([6]; 10000 nM) | cell viability ([7]; 1 nM) | cell viability ([7]; 10 nM) | cell viability ([7]; 100 nM) | cell viability ([7]; 1000 nM) | cell viability ([7]; 10000 nM) | cell viability ([8]; 1 nM) | cell viability ([8]; 10 nM) | cell viability ([8]; 100 nM) | cell viability ([8]; 1000 nM) | cell viability ([8]; 10000 nM) | cell viability ([9]; 1 nM) | cell viability ([9]; 10 nM) | cell viability ([9]; 100 nM) | cell viability ([9]; 1000 nM) | cell viability ([9]; 10000 nM) | cell viability ([10]; 1 nM) | cell viability ([10]; 10 nM) | cell viability ([10]; 100 nM) | cell viability ([10]; 1000 nM) | cell viability ([10]; 10000 nM) | drug sensitivity score [11] | drug sensitivity score [12] | drug sensitivity score [13] | drug sensitivity score [14] | drug sensitivity score [15]
CN1CCOC(c2ccccc2)c2ccccc2C1 (stereo not given) [nefopam] | > 10 µM | > 10 µM | > 10 µM | > 10 µM | > 10 µM | 95.9% | 103% | 98.8% | 102% | 95.1% | 86.6% | 102% | 95.1% | 99.5% | 91.9% | 105% | 108% | 96.7% | 91% | 101% | 104% | 99.3% | 105% | 100% | 98.7% | 95.8% | 104% | 96.3% | 101% | 106% | 0 | 0 | 0 | 0 | 0
CCCCCOC(=O)Nc1nc(=O)n([C@@H]2O[C@H](C)[C@@H](O)[C@H]2O)cc1F [capecitabine] | > 10 µM | > 10 µM | > 10 µM | > 10 µM | > 10 µM | 102% | 101% | 99.7% | 95% | 95.6% | 107% | 110% | 103% | 96.1% | 106% | 99% | 110% | 91.8% | 98.6% | 101% | 96.7% | 103% | 94.3% | 92.6% | 101% | 97% | 104% | 104% | 99.9% | 96.3% | 0 | 0 | 0 | 0 | 0
O=C(O)c1ccccc1Nc1cccc(C(F)(F)F)c1 [flufenamic-acid] | > 10 µM | > 10 µM | > 10 µM | > 10 µM | > 10 µM | 104% | 94.2% | 100% | 96% | 95.8% | 93.5% | 96.3% | 85.4% | 101% | 96.2% | 101% | 108% | 95.9% | 112% | 92.2% | 98.5% | 98.1% | 95.5% | 97.5% | 100% | 93.7% | 103% | 101% | 102% | 101% | 0 | 0 | 0 | 0 | 0
Cc1ccc(-c2csc3ncnc(SCCC(=O)O)c23)cc1 [TTP-22] | > 10 µM | > 10 µM | > 10 µM | > 10 µM | > 10 µM | 97.1% | 94% | 102% | 101% | 102% | 103% | 96.5% | 97.3% | 95% | 97.4% | 101% | 87.5% | 93.4% | 99.4% | 96.3% | 97.3% | 102% | 99% | 99% | 104% | 103% | 92.3% | 95.6% | 100% | 108% | 0 | 0 | 0 | 0 | 0
CCN(CC)CCOc1ccc(Nc2ncc3cc(-c4c(Cl)cccc4Cl)c(=O)n(C)c3n2)cc1 | 0.465 µM | 0.532 µM | 0.712 µM | 0.329 µM | 0.266 µM | 95% | 95.3% | 88.9% | 26.6% | -0.1% | 102% | 102% | 80.7% | 41.7% | 5.4% | 98.8% | 99.5% | 80.3% | 49% | 2.3% | 99.1% | 104% | 90.8% | 10.4% | -0.1% | 111% | 97.9% | 82.2% | 11.3% | 0.1% | 15.3 | 13.5 | 12.5 | 17.5 | 18.4
Cc1cc(NC(=O)C(c2ccccc2)N2CCCc3ccccc32)no1 (stereo not given) [CIM-0216] | > 10 µM | > 10 µM | > 10 µM | > 10 µM | > 10 µM | 104% | 99.2% | 96.3% | 101% | 101% | 97.1% | 101% | 98.2% | 97.4% | 114% | 103% | 98.5% | 87.7% | 113% | 111% | 98.7% | 104% | 97.4% | 101% | 97% | 104% | 103% | 103% | 90.1% | 98.3% | 0 | 0 | 0 | 0 | 0
CC1(C)C(=O)N(c2ccc(C#N)c(C(F)(F)F)c2)C(=O)N1CCCCO | > 10 µM | > 10 µM | > 10 µM | > 10 µM | > 10 µM | 95.6% | 103% | 100% | 103% | 99.2% | 104% | 94.8% | 90.6% | 90.7% | 89.4% | 104% | 114% | 96% | 97.6% | 91.9% | 99.9% | 102% | 96.5% | 97.6% | 98.3% | 98.8% | 93.9% | 103% | 91.1% | 91.6% | 0 | 0.4 | 0 | 0 | 0
